Structures are written as SMILES. Like-named read-outs stand apart in the source and are kept apart here. Bounds are passed on as bounds.

Assay [1] addresses A2A receptor (Sus scrofa, UniProt K9IW67). Kind of assay: Affinity for the A2A receptor in a pig striatum membrane prep (displacement of tritiated ZM 241385). The format is binding. On the procedure:
Compounds of this invention were assayed to determine their affinity for the A2A receptor in a pig striatum membrane prep. Briefly, 0.2 mg of pig striatal membranes were treated with adenosine deaminase and 50 mM Tris buffer (pH=7.4) followed by mixing. […] After incubation at 23 C for 2 h, then the solutions were filtered using a membrane harvester using multiple washing of the membranes (3×). The filter disks were counted in scintillation cocktail affording the amount of displacement of tritiated ZM by the competitive binding compounds of this invention. Greater than a 5 point curve was used to generate IC50's and the number of experiments is indicated in the column marked in Table 1 below.

The target in assay [2] is A2A AdoR (Rattus norvegicus, UniProt P30543). Kind of assay: Increase of coronary conductance in rat isolated perfused hearts.
Method: (§1) Adult Sprague Dawley rats and Hartley guinea pigs of either sex weighing from 230 to 260 grams and 300 to 350 grams, respectively were used in this study. Animals were anesthetized by peritoneal injection of a cocktail containing ketamine and xylazine (ketamine 100 mg, xylazin 20 mg/ml). The chest was opened and the heart quickly removed. The heart was briefly rinse in ice-cold Krebs-Henseleit solution (see below), and the aorta cannulated. […] The heart was electrically paced at a fixed cycle length of 340 ms (250 beats/min) using a bipolar electrode place on the left atrium. The electrical stimuli were generated by a Grass stimulator (Model S48, W. Warwick, R.I.) and delivered through a Stimuli Isolation Unit (Model SIU5, Astro-Med, Inc., NY) as square-wave pulses of 3-msec in duration and amplitude of at least twice the threshold intensity.
Coronary perfusion pressure (CPP) was measured using a pressure transducer, connected to the aortic cannula via a T-connector positioned approximately 3 cm above the heart. Coronary perfusion pressure was monitored throughout the experiment and recorded either on a chart recorder (Gould Recorder 2200S) or a computerized recording system (PowerLab/4S, ADinstruments Pty Ltd, Australia). Only hearts with CPP ranging from 60 to 85 mmHg (in the absence of drugs) were used in the study.
One concentration was made from the stock solution by dilution into saline to yield solution of either 2×10^−4 or 2×10^−5 M. These solutions were injected into the perfusion line of the apparatus as boluses of 20 μl. In some experiments the solutions were placed into a 30 ml glass syringe and the drugs were infused at rates necessary to achieve the desired perfusate concentrations (e.g, 10, 100 nM, etc).
Hearts were instrumented for continuous recording of coronary perfusion pressure (A2A response) and atrioventricular (A-V) conduction time or S-H interval (A1 response).
Assay [3] addresses A2A adenosine receptor (Rattus norvegicus, UniProt P30543). Kind of assay: Reversal time of coronary vasodilation after bolus injection in rat isolated perfused hearts.
Method: Animals were anesthetized by peritoneal injection of a cocktail containing ketamine and xylazine (ketamine 100 mg, xylazine 20 mg/ml). The chest was opened and the heart quickly removed. The heart was briefly rinse in ice-cold Krebs-Henseleit solution (see below), and the aorta cannulated. […] The heart was electrically paced at a fixed cycle length of 340 ms (250 beats/min) using a bipolar electrode place on the left atrium. The electrical stimuli were generated by a Grass stimulator (Model S48, W. Warwick, R.I) and delivered through a Stimuli Isolation Unit (Model SIU5, Astro-Med, Inc., NY) as square-wave pulses of 3 msec in duration and amplitude of at least twice the threshold intensity.
Coronary perfusion pressure (CPP) was measured using a pressure transducer, connected to the aortic cannula via a T-connector positioned approximately 3 cm above the heart. Coronary perfusion pressure was monitored throughout the experiment and recorded either on a chart recorder (Gould Recorder 2200S) or a computerized recording system (PowerLab/4S, ADInstruments Pty Ltd, Australia). Only hearts with CPP ranging from 60 to 85 mmHg (in the absence of drugs) were used in the study.
Protocol: Bolus injections. […] The times to 50% (t 0.5) and 90% (t 0.9) reversal of the decrease in CPP were measured. Each heart was exposed to a maximum of three vasodilators.
The target of assay [4] is A2A AdoR (Cavia porcellus, UniProt P46616). Kind of assay: Increase of coronary conductance in guinea pig isolated perfused hearts.
Method: as §1
Coronary perfusion pressure (CPP) was measured using a pressure transducer, connected to the aortic cannula via a T-connector positioned approximately 3 cm above the heart. Coronary perfusion pressure was monitored throughout the experiment and recorded either on a chart recorder (Gould Recorder 2200S) or a computerized recording system (PowerLab/4S, ADinstruments Pty Ltd, Australia). Only hearts with CPP ranging from 60 to 85 mmHg (in the absence of drugs) were used in the study. […]
The subject of assay [5] is A2A AdoR. The experiment in a line: Coronary blood flow and reversal time of coronary vasodilation in open-chest anesthetized pigs. The following applies: pig.
Method: Farm pigs weighing 22-27 kg were used in this study. […] In addition, animals were used in accordance with the guidelines of the University of Kentucky Institutional Animal Care and Use Protocol.
Anesthesia was anesthetized with ketamine (20 mg/kg, i.m.) and sodium pentobarbital (15-18 mg/kg i.v.). Anesthesia was maintained with additional sodium pentobarbital (1.5-2 mg/kg, i.v.) every 15-20 minutes. Ventilation was maintained via a tracheotomy using a mixture of room air and 100% O2. Tidal volume, respiratory rate and fraction of O2 in inspired air were adjusted to maintain normal arterial blood gas (ABG) and pH values. […] Lactate Ringers solution was administered via an ear or femoral vein, at 5-7 ml/kg/min after a initial bolus of 300-400 ml. A catheter was inserted into the femoral artery to monitor arterial blood pressure and to obtain ABG samples.
The heart was exposed through a median sternotomy, and suspended in a pericardial cradle. Left ventricular pressure (LVP) was measured with a 5F high fidelity pressure sensitive tip transducer (Millar Instruments, Houston, Tex.) placed in the left ventricular cavity via the apex and secured with a purse string suture. A segment of the left anterior descending coronary artery (LAD), proximal to the origin of the first diagonal branch, was dissected free of, surrounding tissue. A transmit time perivascular flow probe (Transonic Systems Inc., Ithaca, N.Y.) was placed around this segment to measure coronary blood flow (CBF). Proximal to the flow probe a 24 g modified angiocatheter was inserted for intracoronary infusions. […] A2A AdoR agonists were dissolved in DMSO to produce stock concentrations of 1-5 mM, which were diluted in 0.9% saline and infused at rates of 1-1.5 ml/min. The A2A AdoR agonists were administered intracoronary. To maintain blood pressure constant, phenylephrine was administered intravenously. The phenylephrine stock solution (30 mM) was prepared in distilled water.
Prior to initiating the experiment, a 30-minute stabilization period followed the completion of all instrumentation. After obtaining the baseline hemodynamic data the first intracoronary infusion of an A2A ADOR agonist was initiated. Infusions were maintained for 4-5 minutes to allow LAD CBF to reach a steadystate, after which the infusion was terminated. The time to recovery of 50% (t 0.5) and 90% (t 0.9) of baseline CBF were recorded. Ten to 15 minutes after CBF returned to pre-drug values a second infusion with a different agonist was started. […] The effect of a maximum of three different agonists was determined in each experiment.
The target in assay [6] is T1, human A1 AdoR (Homo sapiens, UniProt P30542).
T1 construct: expressed in transfected cells
T1 sequence (P30542 1-326): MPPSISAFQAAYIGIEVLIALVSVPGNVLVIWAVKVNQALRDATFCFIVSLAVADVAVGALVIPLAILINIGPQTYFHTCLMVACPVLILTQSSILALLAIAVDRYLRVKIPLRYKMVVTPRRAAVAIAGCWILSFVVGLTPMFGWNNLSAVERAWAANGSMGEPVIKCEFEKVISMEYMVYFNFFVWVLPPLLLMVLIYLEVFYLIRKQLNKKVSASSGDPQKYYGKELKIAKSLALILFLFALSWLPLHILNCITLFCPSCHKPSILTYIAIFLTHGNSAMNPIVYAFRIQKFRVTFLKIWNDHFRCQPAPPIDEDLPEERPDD
Kind of assay: Competition binding, [3H]DPCPX binding sites on CHO-hA1AdoR cell membranes. The conditions noted are these: Gpp(NH)p 100 μM.

For assay [7], the target named is human A2A AdoR (Homo sapiens, UniProt P29274). Kind of assay: Competition binding, [3H]ZM241385 binding sites on HEK-hA2AAR cell membranes. The conditions noted are these: for Ki: HEK-hA2AAR Cells.
Method: To make membranes, cells were detached from the culture plates into ice-cold 50 mmol/L Tris-HCI buffer (pH7.4). The cell suspensions were homogenized with Polytron at setting 4 for 30 seconds, and spun at 48,000 g for 15 minutes. The pellets were washed three times by re-suspension in ice-cold Tris-HCI buffer and centrifugation. The final pellet was re-suspended in a small volume of Tris-HCI, aliquoted and frozen at −80° C. until used for receptor binding assays. The protein concentration of membrane suspensions was determined using the Bradford method (Bio-Rad) with bovine serum as standards.
At the end of incubation, bound and free radioligands were separated by filtration through Whatman GF/C glass fiber filters using a Brandel tissue harvester (Gaithersburg, Md.). Triplicate determinations were performed for each concentration of the competing agent.
The affinity (Ki) of various CVT compounds for the A1 and A2A adenosine receptor were determined by their potency to compete for [^3H]CPX (A1) or [^3H]ZM241385 (A2A) binding sites on membranes derived from CHO-hA1AdoR, PC12 or HEK-HA2AAdoR cells.
Where [8] appears, read: pig striatal membranes, tritiated ZM 241385 2 nM, 23 C 2 h, read-out: A2a Ki.
Where [9] appears, read: intracoronary infusion 1 μg/kg/min.
Setting [10] is: intracoronary infusion 30 μg/kg/min.
[11] abbreviates: rat isolated perfused hearts, bolus into perfusion line.
Setting [12] is: intracoronary infusion 2 μg/kg/min.

human A2A AdoR, sequence (P29274 whole entry): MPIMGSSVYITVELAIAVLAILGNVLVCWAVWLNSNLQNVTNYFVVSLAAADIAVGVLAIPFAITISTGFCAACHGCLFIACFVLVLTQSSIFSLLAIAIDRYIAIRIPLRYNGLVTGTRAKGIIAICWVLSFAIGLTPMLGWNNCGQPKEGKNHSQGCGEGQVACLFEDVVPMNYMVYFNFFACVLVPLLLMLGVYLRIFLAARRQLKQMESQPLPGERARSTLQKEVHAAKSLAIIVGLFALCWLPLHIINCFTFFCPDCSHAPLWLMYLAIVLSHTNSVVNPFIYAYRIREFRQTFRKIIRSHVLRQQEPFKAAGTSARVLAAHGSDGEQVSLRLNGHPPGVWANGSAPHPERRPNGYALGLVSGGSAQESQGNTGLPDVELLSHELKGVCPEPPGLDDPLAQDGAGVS
A2A adenosine receptor, sequence (P30543 whole entry, the tested form may be a part): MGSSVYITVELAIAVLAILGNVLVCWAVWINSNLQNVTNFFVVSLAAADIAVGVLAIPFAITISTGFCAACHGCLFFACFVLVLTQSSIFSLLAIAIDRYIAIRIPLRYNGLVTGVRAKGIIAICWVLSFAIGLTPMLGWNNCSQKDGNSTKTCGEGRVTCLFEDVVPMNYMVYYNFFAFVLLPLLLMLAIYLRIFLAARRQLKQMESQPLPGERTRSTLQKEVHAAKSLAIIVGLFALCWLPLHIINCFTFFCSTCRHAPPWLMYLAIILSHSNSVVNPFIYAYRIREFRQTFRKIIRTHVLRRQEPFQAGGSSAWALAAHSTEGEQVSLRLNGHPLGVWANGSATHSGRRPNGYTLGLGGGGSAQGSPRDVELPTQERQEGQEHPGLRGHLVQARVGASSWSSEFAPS
A2A AdoR (Rattus norvegicus, UniProt P30543), sequence (P30543 whole entry, the tested form may be a part): as above
A2A receptor, sequence (K9IW67 1-409): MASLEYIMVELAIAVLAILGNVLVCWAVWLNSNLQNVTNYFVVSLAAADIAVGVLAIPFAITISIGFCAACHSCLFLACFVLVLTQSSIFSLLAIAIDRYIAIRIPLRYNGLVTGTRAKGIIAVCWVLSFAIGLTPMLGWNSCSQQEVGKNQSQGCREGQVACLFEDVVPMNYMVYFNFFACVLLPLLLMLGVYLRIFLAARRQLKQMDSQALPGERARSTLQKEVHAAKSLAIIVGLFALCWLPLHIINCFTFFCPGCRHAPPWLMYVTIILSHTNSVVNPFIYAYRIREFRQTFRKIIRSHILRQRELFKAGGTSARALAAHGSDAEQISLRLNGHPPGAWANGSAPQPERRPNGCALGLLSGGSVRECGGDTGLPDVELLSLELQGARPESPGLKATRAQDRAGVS
A2A AdoR (Cavia porcellus, UniProt P46616), sequence (P46616 whole entry, the tested form may be a part): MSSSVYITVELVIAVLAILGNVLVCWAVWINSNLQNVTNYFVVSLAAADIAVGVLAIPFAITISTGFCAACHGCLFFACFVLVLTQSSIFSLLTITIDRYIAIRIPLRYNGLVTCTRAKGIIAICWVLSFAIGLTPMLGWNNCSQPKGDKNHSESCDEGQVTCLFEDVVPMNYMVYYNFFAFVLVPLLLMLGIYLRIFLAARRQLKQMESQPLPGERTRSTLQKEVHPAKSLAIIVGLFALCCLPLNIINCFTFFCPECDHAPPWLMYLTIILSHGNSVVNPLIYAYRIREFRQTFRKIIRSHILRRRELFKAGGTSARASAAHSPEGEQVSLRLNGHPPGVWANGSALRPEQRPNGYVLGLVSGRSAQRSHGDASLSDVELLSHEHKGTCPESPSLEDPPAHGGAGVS

Regarding `Nc1nc(-c2cn[nH]c2)nc2c1ncn2[C@@H]1O[C@H](CO)[C@@H](O)[C@H]1O` [Compound 23, (4S,2R,3R,5R)-2-(6-amino-2-pyrazol-4-ylpurin-9-yl)-5-(hydroxymethyl)oxolane-3,4-diol], the Ki in assay [1] (setting [8]) was above 100 µM.
On the same count and under the same terms, then `CC(C)(C)c1ccc(Cn2cc(-c3nc(N)c4ncn([C@@H]5O[C@H](CO)[C@@H](O)[C@H]5O)c4n3)cn2)cc1` [Compound 22, (4S,2R,3R,5R)-2-{6-amino-2-[1-(4-t-butylbenzyl)pyrazol-4-yl]purin-9-yl}-5-(hydroxymethyl)oxolane-3,4-diol], with 7.68 µM.
`Nc1nc(N/N=C/C2CCCCC2)nc2c1ncn2[C@@H]1O[C@H](CO)[C@@H](O)[C@H]1O` [WRC-0470, reference compound]: in assay [2], the EC50 (in general, the concentration needed to bring the measured effect to its halfway point) came to 0.0006 ± 0.0002 µM and the “effect on coronary conductance” value is on record as “concentration-dependent increase”. Besides, in assay [3], the “t 0.5, time to 50% reversal of the increase in coronary conductance” value was found to be 21.9 ± 0.9 min and the “t 0.9, time to 90% reversal of the increase in coronary conductance” value came to 27.9 ± 1.4 min. Moreover, in assay [4], the EC50 is 0.0024 ± 0.0011 µM. Moreover, in assay [5] (setting [9]), the “t0.5, time to 50% reversal of the increase in coronary blood flow” value was found to be 9.5 ± 0.8 min and the “t0.9, time to 90% reversal of the increase in coronary blood flow” value is given as 22.5 ± 1.6 min.
Consider `Nc1nc(-c2cnn(Cc3ccccc3)c2)nc2c1ncn2[C@@H]1O[C@H](CO)[C@@H](O)[C@H]1O` [Compound 12, (4S,2R,3R,5R)-2-{6-amino-2-[1-benzylpyrazol-4-yl]purin-9-yl}-5-(hydroxymethyl)oxolane-3,4-diol], for which the Ki in assay [6] (read-out: Binding Affinity Ki, CHO-hA1AR) came to 6.35 µM. In assay [6] (read-out: Binding Affinity pKi ± SEM, CHO-hA1AR (converted)), the Ki was 6.03 µM. In assay [2], the “effect on coronary conductance” value is listed as “concentration-dependent increase” and the “relative potency in increasing coronary conductance” value is reported as “about as potent as adenosine”. Moreover, in assay [3], the “t 0.5, time to 50% reversal of the increase in coronary conductance” value was determined as 4.1 ± 0.3 min and the “t 0.9, time to 90% reversal of the increase in coronary conductance” value is reported as 9.8 ± 1.4 min. In addition, in assay [1], the Ki was 6.67 ± 1.12 µM. Further, in assay [5] (setting [10]), the “CBF ("Fold Increase") above baseline, maximal” value turned out to be 3.78 ± 0.70 fold; the “t0.5, time to 50% reversal of the increase in coronary blood flow” value came to 2.3 ± 0.6 min; the “t0.9, time to 90% reversal of the increase in coronary blood flow” value is recorded as 9.6 ± 1.0 min. Moreover, the Ki in assay [7] (Binding Affinity Ki) was 13.7 µM. Moreover, the Ki in assay [7] (Binding Affinity pKi ± SEM) was 13.5 µM.
On to `CCCCCCC#Cc1nc(N)c2ncn([C@@H]3O[C@H](CO)[C@@H](O)[C@H]3O)c2n1` [YT-146, reference compound], for which, in assay [3] (setting [11]), the “t 0.5, time to 50% reversal of the increase in coronary conductance” value was found to be 17.7 ± 1.0 min and the “t 0.9, time to 90% reversal of the increase in coronary conductance” value is recorded as 28.5 ± 4.0 min. In assay [5] (setting [9]), the “CBF ("Fold Increase") above baseline, maximal” value worked out at 3.44 ± 0.47 fold and the “t0.9, time to 90% reversal of the increase in coronary blood flow” value is 32.9 ± 5.6 min.
On to `CCCCC#Cc1nc(N)c2ncn([C@@H]3O[C@H](C(=O)NCC)[C@@H](O)[C@H]3O)c2n1` [HENECA, reference compound], for which, in assay [3] (setting [11]), the “t 0.5, time to 50% reversal of the increase in coronary conductance” value is given as 28.6 ± 1.1 min and the “t 0.9, time to 90% reversal of the increase in coronary conductance” value is recorded as 32.8 ± 3.1 min.
Turning to `CCNC(=O)[C@H]1O[C@@H](n2cnc3c(N)nc(NCCc4ccc(CCC(=O)O)cc4)nc32)[C@H](O)[C@@H]1O` [CGS21680, reference compound], in assay [5] (setting [12]), the “t0.5, time to 50% reversal of the increase in coronary blood flow” value is listed as 9.7 ± 0.8 min and the “t0.9, time to 90% reversal of the increase in coronary blood flow” value came out at 21.4 ± 0.8 min.
Take `CC(C)n1cc(-c2nc(N)c3ncn([C@@H]4O[C@H](CO[Si](C)(C)C(C)(C)C)[C@@H](O[Si](C)(C)C(C)(C)C)[C@H]4O[Si](C)(C)C(C)(C)C)c3n2)cn1` [Compound 16, 9-{(2R,3R,4R,5R)-3,4-bis(1,1,2,2-tetramethyl-1silapropoxy)-5-[(1,1,2,2-tetramethyl-1-silapropoxy)methyl]oxolan-2-yl}-2-[1-(1-methylethyl)pyrazol 4-yl]purine-6-ylamine]: the “A2A affinity” value in assay [7] (conclusion of Example 5) is “low affinity A2A agonist”.
Regarding `Nc1nc(-c2cnn(CCCc3ccccc3)c2)nc2c1ncn2C1O[C@H](CO)[C@@H](O)[C@H]1O` (stereo partly drawn) [Compound 21, (4S,2R,3R,5R)-2-{6-amino-2-[1-(3-phenylpropyl)pyrazolyl-4-yl]purin-9-yl}-5-(hydroxymethyl)oxolane-3,4-diol], in assay [3] (setting [11]), the “t 0.5, time to 50% reversal of the increase in coronary conductance” value is on record as 8.3 ± 0.4 min and the “t 0.9, time to 90% reversal of the increase in coronary conductance” value stood at 12.6 ± 0.4 min. For the same compound, in assay [1] (setting [8]), the Ki stood at 6.13 ± 0.582 µM.
For the compound `CC(C)n1cc(-c2nc(N)c3ncn([C@@H]4O[C@H](CO)[C@@H](O)[C@H]4O)c3n2)cn1` [Compound 20, (4S,2R,3R,5R)-2-{6-amino-2-[1-(methylethyl)pyrazol-4-yl]purin-9-yl}-5-(hydroxymethyl)oxolane-3,4-diol], the Ki in assay [1] (setting [8]) was around 10 µM.
The same measure, in the same setting: in the case of `Cn1cc(-c2nc(N)c3ncn([C@@H]4O[C@H](CO)[C@@H](O)[C@H]4O)c3n2)cn1` [Compound 19, (4S,2R,3R,5R)-2-[6-amino-2-(1-methylpyrazol-4-yl)purin-9-yl]-5-(hydroxymethyl)oxolane-3,4-diol] it was above 10 µM.

Values taken from US7553823B2, “C-pyrazole A2A receptor agonists” (CV Therapeutics, Inc., priority 1999, dated 2009).
